One assay concerns HCT116 cells. The experiment in a line: Screening of chemical libraries for IR-mediated cellular cannibalism (imaging flow cytometry, confocal validation). Conditions: 8 Gy irradiated HCT116 cells, 10 μM compound, 24 h culture. In kind it is cell-based, human. How it is done: FIG. 4 Identification of cannibalism modulators triggered by ionizing radiation. Compounds from the Prestwick (A) and CEA (F) libraries were tested for their capacities to induce cellular cannibalism after ionizing radiation. Cannibal cells were detected after homotypic cultures of 8 gray γ-irradiation HCT116 cells in the presence or absence of 10 μM of the Prestwick (A) and CEA […] library compounds. Each dot represents one compound. Representative images are shown in (B, G). (C, H) HCT116 cells were treated with the indicated drugs. After 24 h of treatment, cell death was monitored by staining with 3,3 dihexyloxacarbocyanine iodide (DiOC6(3)) and PI^+, and the percentage of dying (DiOC6(3)^low PI^−, open bars) and dead (DiOC6(3)^low PI^+, closed bars) cells was determined by cytofluorometry. Validation of the cannibalism inducers by fluorescent microscopy. Representative images (D, I) and quantification (E, J) are shown. Results are means s.e.m. of triplicate determinations.
Untreated HCT116 cells were labeled with CMFDA (green fluorescence, CMFDA^+) or CMTMR, (red fluorescence, CMTMR) and treated HCT116 cells with CMFDA (green fluorescence, CMFDA^+). The following cell mixtures were performed: untreated CMTMR^+ HCT116 cells were mixed with untreated CMFDA^+ HCT116 cells, or untreated CMTMR^+ HCT116 cells were mixed with treated CMFDA^+ HCT116 cells. Then, cells were co-cultured during 24 hours in the presence or absence of the pharmacological inhibitor of ROCK, Y27632 (30 μM), the pan-caspase inhibitor, Z-VAD-fmk (ZVAD, 100 μM), the inhibitor of caspase-1, Ac-YVAD-cmk (YVAD, 100 μM), the necroptosis inhibitor, Necrostatin-1 (NEC1, 30 μM), the inhibitor of the vacuolar type H(+)-ATPase (V-ATPase) inhibiting autophagy, Bafilomycin A1 (BafA1, 50 nM), the inhibitor of Cdks with an anti-mitotic activity, Roscovitine (Rosco, 10 μM). After 24 hours of co-culture, both detached and adherent cells were collected and stained with Hoechst […] (10 μg/mL) during 1 hour at 37° C. in warmed complete medium. To detect phosphatidylserine (PS) exposure and plasma membrane permeability, labeled HCT116 cells were successively incubated with Biotin-AnnexinV (BD Pharmingen) as recommended by manufacturer, […] BV786-Streptavidin (BD Biosciences) and 3 μM DRAQ7 (BioStatus) during 15 minutes at 25° C. After washing with PBS solution, samples were immediately analyzed using an imaging flow cytometer FlowSight® (Amnis®, part of EMD Millipore). Data were acquired at a 20× magnification, using INSPIRE software. The 405 nm, 488 nm, and 561 nm lasers were used for excitation. Brightfield, Annexin V-BV786, DRAQ7, CMFDA, CMTMR and Hoechst […] stainings were detected using respectively channels for 420-480 nm, 745-800 nm, 642-745 nm, 480-560 nm, 595-642 nm and 430-505 nm. At least 1000 events of cells per sample were analyzed. Additional single-labeled controls were prepared to normalize fluorescent signal across different channels. Acquired data were analyzed using the IDEAS analysis software (v6.1; Merck-Millipore). Gating strategy was the following. Cells were gated for focused cells using the Gradient RMS feature. Cells were gated for single cells using the aspect ratio and area features. For the cannibalism detection, cells were gated in the double positive CMFDA^+ and CMTMR^+ staining.
To detect PS exposure, plasma membrane permeability and cell cycle progression, cells were after co-culture sequentially labeled with specific fluorescent probes (such as FITC-conjugated AnnexinV, propidium iodide, and Hoechst 33342) and analyzed by flow cytometry. Both detached and adherent cells were collected and stained with Hoechst […] (10 μg/ml) during 1 hour at 37° C. in warmed complete medium. After washing with PBS, HCT116 cells were suspended in 1× binding buffer supplemented with fluorescein isothiocyanate (FITC)-conjugated Annexin V (BD Biosciences) and propidium iodide (PI, 1 μg/mL) (Sigma), as per manufacturer's instructions. […]
On the technique in general: In flow cytometry, cells or beads pass a laser one at a time.

Another assay relates to CT26 cells. The experiment in a line: Anti-tumor vaccination assay, CT26 cells in BALB/c mice. In kind it is in vivo, mouse. The settings on record: for frequency of mice showing a protective response: 8 Gy + 10 μM compound 24 h. How it is done:
FIG. 5. Identification of cannibalism modulators as immunogenic cell death inducers. MCA205 (A) or CT26 (E, I, M, Q) cells were treated with the indicated drugs. After 24 h of coculture with the indicated treatment, cell death was monitored by staining DiOC6(3) and PI, and the percentage of dying (DiOC6(3)^low PI^−, open bars) and dead (DiOC6(3)^low PI^+, closed bars) cells was determined by cytofluorometry. (B-D) MCA205 cells or (F-H, J-L, N-P, R-T) CT26 cells cocultured after x irradiation with the indicated compounds were inoculated subcutaneously into the right flank of […] or BALB/c mice, respectively. Seven days later, the mice were rechallenged with live cells injected into the opposite flank, and tumor growth was monitored (five mice per group).
FIG. 6. Tumor vaccination experiments. CT26 cells were treated for 24 hours with 10 μM VP331 (A, F, K), 10 μM Minaprine (B, G, L), 10 μM Lopa87 (C, H, M), 10 μM SG6163F (D, I, N), 10 μM Azaguanine-8 (8-aza) (E, J, O) alone or combined with 8 Gy ionizing radiation and inoculated (s.c.) into immunocompetent BALB/c mice, which were rechallenged at the opposite flank 7 days later with the same cancer cells. The percentage of tumor-free mice was evaluated three times a week for the following 38 days. Percentage of total tumor free mice (A-E), tumor free-mice at the first injection site (F to J, P) or at the second injection site (K to O, Q) are shown. (*P<0.05, **P<0.01, ***P<0.001, two-way ANOVA).
The combination of IRCCE with IR induces efficient antitumor immunity. Considering that immunogenic cell death (ICD) inducers were identified (such as Digoxin, Digitoxin, Lanatoside C or Doxorubicin hydrochloride)^3, 4, 48-51) as IRCCE, the ability of these compounds to induce an antitumor immunity after radiotherapy was evaluated. First, a preclinical approaches was developed to study the immunological effects of IRCCE on two mouse models of carcinoma (colon CT26 carcinoma and fibrosarcoma MCA205). Initially, the ability of the combination of IRCCE+IR to trigger a specific anti-tumor immune response was appreciated using immunocompetent mice through anti-tumor vaccination assays. According to previously published studies^52, the injection of cancer cells succumbing to an immunogenic cell death (ICD) into immunocompetent mice must elicit a protective immune response that is specific for tumor antigens. Thus, 3×10^5 MCA205 cells were first treated with 10 μM of SG6163F for 24 hours. Then, treated cells were inoculated subcutaneously in 200 μl PBS into the lower flank of 8-week-old female C57BL/6 mice. One week later, 3×10^4 untreated control cells were inoculated into the contralateral flank of mice. Tumors were evaluated weekly using a common caliper. Animals bearing tumors that exceeded 20-25% body mass were euthanatized. […] Then, 3×10^6 CT26 cells were irradiated with 8 Gy in presence of 10 μM of SG6163F (FIGS. 5E and 5F), VP331 (FIGS. 5I and 5J), Minaprine dihydrochloride (FIGS. 5M and 5N) or LOPA87 (FIGS. 5Q and 5R) for 24 hours. Then, cells were inoculated as previously described subcutaneously in […] into the lower flank of 8-week-old female BALB/c mice. One week later, 5×10^5 untreated control cells were inoculated into the contralateral flank of mice and tumors were evaluated weekly using a common caliper. As previously mentioned, animals bearing tumors that exceeded 20-25% body mass were euthanatized. The percentage of dying cells in each condition was evaluated by determining with DiOC(6)3/IP staining (FIGS. 5E, 5I, 5M and 5Q). Finally, the ability of these compounds to repress the growth of cancer cells that have been injected 7 days after injection of irradiated and treated cancer cells was appreciated.
A second anti-tumor vaccination assay was done on CT26 mouse models of carcinoma as previously described. […]

Where [1] appears, read: first assay: CT26 cells, rechallenge one week later.
[2] abbreviates: second assay: CT26 cells, rechallenge 7 days later.

Experimental findings from patent US11517575B2, “Use of minaprine to reduce tumor growth” (Institut Gustave-Roussy, priority 2019, dated 2022) are described below.

Consider `COc1cccc2c1C(=O)c1c(O)c3c(c(O)c1C2=O)C[C@@](O)(C(=O)CO)C[C@@H]3O[C@H]1C[C@H](N)[C@H](O)[C@H](C)O1.Cl` [Doxorubicin hydrochloride], for which, in the assay on HCT116 cells, the “enhancement of IR-mediated cellular cannibalism” value (“enhancement” below) is “efficient cellular cannibalism enhancer”.
`CN(C)c1ccc(-c2cc(=O)[nH]c(-c3ccccc3)n2)cc1` [LOPA87]: in the assay on HCT116 cells, the “enhancement” value was “efficient cellular cannibalism enhancer”. The “frequency of mice showing a protective response” value (from here on “frequency”) in the assay on CT26 cells (setting [1]) was “significant increase in the frequency of mice showing a protective response”; in the assay on CT26 cells (setting [2]), “Significant increases in the frequency of mice showing a protective response”.
Take `CN1CCc2c(c3ccccc3n2Cc2ccccc2)C1` [Mebhydroline 1,5-naphtalene-disulfonate]: the “enhancement” value in the assay on HCT116 cells is reported as “efficient cellular cannibalism enhancer”.
The same measure, in the same setting: the value for `C[C@H]1O[C@@H](O[C@H]2[C@@H](O)C[C@H](O[C@H]3[C@@H](O)C[C@H](O[C@H]4CC[C@@]5(C)[C@H](CC[C@@H]6[C@@H]5C[C@@H](O)[C@]5(C)[C@@H](C7=CC(=O)OC7)CC[C@]65O)C4)O[C@@H]3C)O[C@@H]2C)C[C@H](O)[C@@H]1O` [Digoxin] was “efficient cellular cannibalism enhancer”; that for `CN1c2ccccc2C(=O)N(c2ccccc2)C1c1ccc(-c2csc(CO)n2)s1` (stereo not shown) [VP43] was “efficient cellular cannibalism enhancer”.
`CC(C(=O)O)c1ccc(-c2ccccc2)c(F)c1` (stereo not shown) [Flurbiprofen]: the “enhancement” value with HCT116 cells was “efficient cellular cannibalism enhancer”.
On the same count and under the same terms, as for Myricetin, the entry is “efficient cellular cannibalism enhancer”.
The same measure, in the same setting: the value for `O=C(N/N=C/c1ncc[nH]1)NC12CC3CC(CC(C3)C1)C2` [VP450] was “efficient cellular cannibalism enhancer”; that for `C[C@H]1O[C@@H](O[C@H]2[C@@H](O)C[C@H](O[C@H]3[C@@H](O)C[C@H](O[C@H]4CC[C@@]5(C)[C@H](CC[C@@H]6[C@@H]5CC[C@]5(C)[C@@H](C7=CC(=O)OC7)CC[C@]65O)C4)O[C@@H]3C)O[C@@H]2C)C[C@H](O)[C@@H]1O` [Digitoxin] was “efficient cellular cannibalism enhancer”.
For the compound `Nc1nc2[nH]nnc2c(=O)[nH]1` [Azaguanine-8], the “enhancement” value with HCT116 cells was “efficient cellular cannibalism enhancer”. Besides, the “protective response after injection of cancer cells” value with CT26 cells (second assay: CT26 cells treated with 10 μM compound alone (no IR)) is on record as “induce an increase of protective response”. In addition, in the assay with CT26 cells (setting [2]), the “frequency” value is “Significant increases in the frequency of mice showing a protective response”.
With `COc1cc(O)ccc1/C=N/c1ccccc1C(=O)Nc1ccccc1` [RN-1-026], the “enhancement” value in the assay with HCT116 cells was “efficient cellular cannibalism enhancer”.
Regarding `COc1ccc(C)cc1/C=N/[C@@H]1C[C@@H]2C[C@H]([C@H]1C)C2(C)C` [VP331], the “enhancement” value in the assay on HCT116 cells is recorded as “efficient cellular cannibalism enhancer”. Moreover, the results for the “frequency” value with CT26 cells (setting [1]) and in the assay with CT26 cells (setting [2]) were “significant increase in the frequency of mice showing a protective response” and “Significant increases in the frequency of mice showing a protective response”, respectively.
With `CC(=O)O[C@H]1C[C@H](O[C@H]2[C@@H](O)C[C@H](O[C@H]3[C@@H](O)C[C@H](O[C@H]4CC[C@@]5(C)[C@H](CC[C@@H]6[C@@H]5C[C@@H](O)[C@]5(C)[C@@H](C7=CC(=O)OC7)CC[C@]65O)C4)O[C@@H]3C)O[C@@H]2C)O[C@H](C)[C@H]1O[C@@H]1O[C@H](CO)[C@@H](O)[C@H](O)[C@H]1O` [Lanatoside C], the “enhancement” value in the assay with HCT116 cells was “efficient cellular cannibalism enhancer”.
